{"source": "paper PMC12284513", "about": "“Unique structural features define the decarboxylation activity of a CYP152 fatty acid decarboxylase from Lacicoccus alkaliphilus” (The Journal of Biological Chemistry, 2025)", "key": {"[1]": {"system": "OleTJE L176I", "assay": "Fatty acid bioconversion with H2O2 as co-substrate (alkene by GC-MS, hydroxy products by HPLC-MS)", "format": "biochemical, Jeotgalicoccus sp. 8456", "conditions": "for Decarboxylation activity of OleTJE L176I compared to that of OleTJE wild type: 200 μM substrate, 400 μM H2O2", "procedure": "A reaction was typically quenched by adding 2-fold reaction volume of ethyl acetate which contained 30 μM of tetradecane as an internal standard. The reaction mixtures were vortexed for 1 min and then centrifuged at 12,000 rpm, 4 °C for 10 min to separate an organic and an aqueous phase. The organic phase was injected into an Agilent gas chromatography system (GC-MS) (Agilent 7890B equipped with Agilent 5977B MSD) equipped with a HP5-MS column (30 m × 0.25 mm × […]) (Agilent), and helium was used as a carrier gas. The oven conditions for C10FA and 1-nonene (C9 alkene) were ramped up from 60 to 240 °C with a rate of 19 ° C min^−1 and held at 240 °C for 1 min. […] For C18FA and 1-heptadecene (C17 alkene), the oven was ramped up from 60 to 250 °C with a rate of 22 °C min^−1 and hold at 250 °C for 4 min. For C20FA and 1-nonadecene (C19 alkene), the oven was ramped up from 100 to 250 °C with a rate of 23 °C min^−1 and held at 250 °C for 6 min. The response of target compounds was normalized with signals of the internal standard. The concentration of each compound was calculated based on a standard calibration curve.\nFor analyzing hydroxylated products of fatty acids, the reactions were quenched by adding an equal volume of acetonitrile, centrifuged, and filtrated. The analytes (10 μl) were injected into a liquid chromatography coupled with diode array and single quadrupole mass spectroscopy detection (LC-DAD/MS) (Agilent 1290 Infinity II LC System equipped with DAD, Single Quadrupole Mass Spectrometers system). A Zorbax eclipse plus C18 column (5 μm, 4.6 × 250 mm) (Agilent Technology) was used for separation. The mobile phase system A was water with 0.1% (v/v) formic acid, and system B was acetonitrile with 0.1% (v/v) formic acid.\nAll fatty acids were prepared in absolute EtOH at 20 mM as stock solutions. The reaction was carried out in 50 mM NaH2PO4 buffer with 300 mM NaCl, pH 7.5, with 2.5 or 10% (v/v) of EtOH, 200 μM of a substrate, and 400 μM of H2O2. The reactions were performed at 25 °C for 1 h, and then the alkene product was measured using GC-MS after the reactions were quenched and extracted with two-fold volume of ethyl acetate.\nSite-directed mutagenesis of I178L of OleTLA and […] of OleTJE was done with overlaping PCR that used OleTLA or OleTJE plasmids as templates (Table S4). The PCR products were treated with DpnI in cut smart buffer at 37 °C for 16 h, transformed into E. coli XL−1 blue competent cells and grown at 37 °C on LB agar containing 50 μg/ml ampicillin. The plasmids of selected colonies were extracted for sequence verification. The plasmid containing the correct sequence was transformed into E. coli BL21 (DE3) for enzyme expression. The expression and purification methods of variants were the same as those of wild-type OleTLA and OleTJE."}, "[2]": {"system": "Escherichia coli BL21 (DE3) cells co-transformed with pGro7, FdR/FdX system, and OleTLA or OleTJE", "assay": "In vivo bioconversion of C16FA with the FdR/FdX redox partner system", "format": "cell-based", "conditions": "128.22 mg/L of C16FA added, cells overexpressing OleTLA and OleTJE", "procedure": "The pRSFDuet−1 vector containing FdR/FdX and OleTLA or OleTJE was transformed into competent E. coli BL21 (DE3) containing a pGro7 plasmid. The transformed cells were incubated in LB broth at 37 °C, 220 rpm for 1.5 h, spread on LB agar with ampicillin (50 μg/ml), kanamycin (34 μg/ml), and chloramphenicol (20 μg/ml), and incubated at 37 °C for overnight. A single colony was inoculated into a starter culture in an auto-induction medium with appropriate antibiotics and 1% (w/v) of glucose. The culture was then incubated at 37 °C, 220 rpm overnight. Then, 1% (v/v) of the starter was inoculated into the auto-induction medium in the presence of ammonium iron (III) citrate (20 ug/ml), L-arabinose (2 mg/ml), ampicillin (50 μg/ml), kanamycin (34 μg/ml), and chloramphenicol (20 μg/ml), hemin (0.05 mM) and δ-ALA (0.5 mM) and then grown at 37 °C, 220 rpm until OD600 reached about 0.8 to 1.0. […] At a specific time point, the culture medium was sampled and extracted by adding two-fold ethyl acetate with tetradecane as an internal standard. The mixture was vortexed and centrifuged at 4 °C for 10 min. The organic phase was collected and injected into the GC-MS system."}, "[3]": {"assay": "Thermofluor assay of enzyme melting temperature", "format": "physicochemical", "conditions": "reductase enzymes of the redox partner systems (Fig. S16)", "procedure": "The reactions containing 10 μM of enzyme, 25X of SYPRO Orange Protein Gel Stain solution in 25 μl of a storage buffer were carried out in a CFX96 Real-Time (Bio-Red) Thermal Cycle. The temperature of the experiments was raised from 30 to 80 °C at a continuous rate of 1 °C min^−1. The temperature at which half of the total amount of protein transitioned into an unfolded form is designated as the melting temperature."}}, "data": [{"molecule": "CCCCCCCCCC(=O)O", "note": "[C10FA, decanoic acid]", "values": [{"measurement": "Decarboxylation activity of OleTJE L176I compared to that of OleTJE wild type", "setting": "[1]", "result": "less than 1%"}]}, {"molecule": "CCCCCCCCCCCCCCCCCCCC(=O)O", "note": "[C20FA, icosanoic acid]", "values": [{"measurement": "Decarboxylation activity of OleTJE L176I compared to that of the wild-type enzyme", "setting": "[1]; 2.5% (v/v) EtOH", "result": 37, "unit": "%"}, {"measurement": "Decarboxylation activity of OleTJE L176I compared to that of the wild-type enzyme", "setting": "[1]; 10% (v/v) EtOH", "result": 23, "unit": "%"}]}, {"molecule": "CCCCCCCCCCCC(=O)O", "note": "[C12FA, dodecanoic acid]", "values": [{"measurement": "Decarboxylation activity of OleTJE L176I compared to that of OleTJE wild type", "setting": "[1]", "result": "less than 1%"}]}, {"molecule": "CCCCCCCCCCCCCCCCCC(=O)O", "note": "[C18FA, octadecanoic acid]", "values": [{"measurement": "Decarboxylation activity of OleTJE L176I compared to that of OleTJE wild type", "setting": "[1]", "result": "less than 5%"}]}, {"molecule": "C=CCCCCCCCCCCCCC", "note": "[C15 alkene, 1-pentadecene]", "values": [{"measurement": "C15 alkene produced", "setting": "[2]; after 24 h", "result": 0.42, "unit": "mg/L"}, {"measurement": "C15 alkene produced", "setting": "[2]; after 48 h", "result": "around 1.26 mg/L"}]}, {"molecule": "FdR: ferredoxin reductase, redox partner, gene from Escherichia coli K-12 (protein, UniProt P28861 2-248, looked up) Flavodoxin/ferredoxin--NADP …: ADWVTGKVTKVQNWTDALFSLTVHAPVLPFTAGQFTKLGLEIDGERVQRAYSYVNSPDNPDLEFYLVTVPDGKLSPRLAALKPGDEVQVVSEAAGFFVLDEVPHCETLWMLATGTAIGPYLSILQLGKDLDRFKNLVLVHAARYAADLSYLPLMQELEKRYEGKLRIQTVVSRETAAGSLTGRIPALIESGELESTIGLPMNKETSHVMLCGNPQMVRDTQQLLKETRQMTKHLRRRPGHMTAEHYW", "values": [{"measurement": "Tm", "setting": "[3]", "result": 60, "unit": "°C"}]}, {"molecule": "CamA: putidaredoxin reductase, known redox partner, from Pseudomonas putida (protein, UniProt P16640 1-422, looked up) Putidaredoxin reductase CamA: MNANDNVVIVGTGLAGVEVAFGLRASGWEGNIRLVGDATVIPHHLPPLSKAYLAGKATAESLYLRTPDAYAAQNIQLLGGTQVTAINRDRQQVILSDGRALDYDRLVLATGGRPRPLPVASGAVGKANNFRYLRTLEDAECIRRQLIADNRLVVIGGGYIGLEVAATAIKANMHVTLLDTAARVLERVTAPPVSAFYEHLHREAGVDIRTGTQVCGFEMSTDQQKVTAVLCEDGTRLPADLVIAGIGLIPNCELASAAGLQVDNGIVINEHMQTSDPLIMAVGDCARFHSQLYDRWVRIESVPNALEQARKIAAILCGKVPRDEAAPWFWSDQYEIGLKMVGLSEGYDRIIVRGSLAQPDFSVFYLQGDRVLAVDTVNRPVEFNQSKQIITDRLPVEPNLLGDESVPLKEIIAAAKAELSSA", "values": [{"measurement": "Tm", "setting": "[3]", "result": 50, "unit": "°C"}]}]}
